Holding throughout (format): cell-based
The target in one assay is mGlu8 (Homo sapiens, UniProt O00222). Kind of assay: Activities on metabotropic glutamate receptor 8 (EC50; readout marked IP or by a symbol). An excerpt:
(§1) Activities on Metabotropic Glutamate Receptors 4, 8, 6 and 7.
(§2) Nitrobenzyl PCEP Derivatives

A further assay deals with mGlu6 (Homo sapiens, UniProt O15303). Kind of assay: Activities on metabotropic glutamate receptor 6 (EC50; readout marked IP or by a symbol). The settings on record: mean ± spread (n), read-out: mG1u6 EC50 μM (n) (converted).
Source text: as §1, §2

For another assay, the target named is mGlu7 (Homo sapiens, UniProt Q14831). Kind of assay: Activities on metabotropic glutamate receptor 7 (EC50; readout marked IP or by a symbol). Particulars: mean ± spread (n), read-out: mG1u7 EC50 μM (n) (converted).
Source text: as §1, §2

The target in a further assay is mGlu4 (Homo sapiens, UniProt Q14833). Kind of assay: Activities on metabotropic glutamate receptor 4 (EC50; readout marked IP or by a symbol). The settings on record: for mGlu8/4 EC50 ratio: ratio of mGlu8 EC50 to mGlu4 EC50, one per pair of values (readout/batch).
Source text: as §1, §2

Where [1] appears, read: values marked IP, mean ± spread (n).
Where [2] appears, read: values marked with an image symbol (second readout, not IP).
Where [3] appears, read: values marked with an image symbol (second readout, not IP), mean ± spread (n).

The source of these data is patent US20120016155A1, “DIASTEREOISOMERS OF HYPOPHOSPHOROUS ACID DERIVATIVES” (priority 2009, published 2012).

Structures can show the parent of a compound that is named as a salt. Where two headings read alike, the source gives them in different places.

mGlu8, sequence (O00222 34-908): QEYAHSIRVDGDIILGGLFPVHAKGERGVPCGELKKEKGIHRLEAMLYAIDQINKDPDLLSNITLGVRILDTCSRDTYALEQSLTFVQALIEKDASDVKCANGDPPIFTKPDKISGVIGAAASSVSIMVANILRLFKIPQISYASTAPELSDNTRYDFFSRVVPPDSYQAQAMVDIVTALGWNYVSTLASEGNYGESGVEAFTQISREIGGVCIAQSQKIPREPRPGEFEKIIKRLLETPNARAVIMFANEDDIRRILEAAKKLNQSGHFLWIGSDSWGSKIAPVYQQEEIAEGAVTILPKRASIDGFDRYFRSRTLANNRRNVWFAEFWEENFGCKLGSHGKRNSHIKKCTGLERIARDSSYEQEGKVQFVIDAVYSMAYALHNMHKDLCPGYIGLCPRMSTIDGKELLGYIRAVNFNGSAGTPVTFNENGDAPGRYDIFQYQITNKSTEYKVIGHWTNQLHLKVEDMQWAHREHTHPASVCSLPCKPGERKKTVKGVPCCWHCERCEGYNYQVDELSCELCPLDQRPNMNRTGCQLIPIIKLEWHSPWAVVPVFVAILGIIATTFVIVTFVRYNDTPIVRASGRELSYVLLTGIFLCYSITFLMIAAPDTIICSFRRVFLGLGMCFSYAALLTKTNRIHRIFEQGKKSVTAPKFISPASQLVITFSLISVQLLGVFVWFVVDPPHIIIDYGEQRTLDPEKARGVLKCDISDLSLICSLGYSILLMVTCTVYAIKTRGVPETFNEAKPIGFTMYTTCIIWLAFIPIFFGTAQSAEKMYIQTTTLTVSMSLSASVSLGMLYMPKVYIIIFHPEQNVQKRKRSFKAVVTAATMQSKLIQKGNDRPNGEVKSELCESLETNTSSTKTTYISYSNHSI
mGlu4, sequence (Q14833 33-912): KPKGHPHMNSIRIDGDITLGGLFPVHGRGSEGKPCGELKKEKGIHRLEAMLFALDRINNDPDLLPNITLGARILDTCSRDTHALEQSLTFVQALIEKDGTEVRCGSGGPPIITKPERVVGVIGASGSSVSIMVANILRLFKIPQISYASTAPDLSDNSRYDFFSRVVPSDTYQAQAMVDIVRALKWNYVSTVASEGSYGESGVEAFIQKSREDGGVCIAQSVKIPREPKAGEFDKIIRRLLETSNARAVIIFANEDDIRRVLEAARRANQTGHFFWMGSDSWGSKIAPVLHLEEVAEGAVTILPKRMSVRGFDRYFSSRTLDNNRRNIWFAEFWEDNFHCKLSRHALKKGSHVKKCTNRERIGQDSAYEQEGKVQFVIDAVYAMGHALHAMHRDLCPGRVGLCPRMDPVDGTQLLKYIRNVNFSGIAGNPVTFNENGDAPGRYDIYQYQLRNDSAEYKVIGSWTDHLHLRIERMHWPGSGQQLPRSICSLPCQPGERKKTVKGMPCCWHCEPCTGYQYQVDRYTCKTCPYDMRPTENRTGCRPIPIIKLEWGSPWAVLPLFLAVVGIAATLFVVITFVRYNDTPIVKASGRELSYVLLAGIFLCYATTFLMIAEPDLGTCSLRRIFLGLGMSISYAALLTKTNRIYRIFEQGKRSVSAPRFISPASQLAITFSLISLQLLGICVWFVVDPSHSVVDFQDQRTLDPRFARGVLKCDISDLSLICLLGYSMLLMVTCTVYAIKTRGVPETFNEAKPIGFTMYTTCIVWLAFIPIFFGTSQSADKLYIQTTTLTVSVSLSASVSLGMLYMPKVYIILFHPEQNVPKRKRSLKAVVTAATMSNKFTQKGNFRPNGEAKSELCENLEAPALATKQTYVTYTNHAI
mGlu6, sequence (O15303 25-877): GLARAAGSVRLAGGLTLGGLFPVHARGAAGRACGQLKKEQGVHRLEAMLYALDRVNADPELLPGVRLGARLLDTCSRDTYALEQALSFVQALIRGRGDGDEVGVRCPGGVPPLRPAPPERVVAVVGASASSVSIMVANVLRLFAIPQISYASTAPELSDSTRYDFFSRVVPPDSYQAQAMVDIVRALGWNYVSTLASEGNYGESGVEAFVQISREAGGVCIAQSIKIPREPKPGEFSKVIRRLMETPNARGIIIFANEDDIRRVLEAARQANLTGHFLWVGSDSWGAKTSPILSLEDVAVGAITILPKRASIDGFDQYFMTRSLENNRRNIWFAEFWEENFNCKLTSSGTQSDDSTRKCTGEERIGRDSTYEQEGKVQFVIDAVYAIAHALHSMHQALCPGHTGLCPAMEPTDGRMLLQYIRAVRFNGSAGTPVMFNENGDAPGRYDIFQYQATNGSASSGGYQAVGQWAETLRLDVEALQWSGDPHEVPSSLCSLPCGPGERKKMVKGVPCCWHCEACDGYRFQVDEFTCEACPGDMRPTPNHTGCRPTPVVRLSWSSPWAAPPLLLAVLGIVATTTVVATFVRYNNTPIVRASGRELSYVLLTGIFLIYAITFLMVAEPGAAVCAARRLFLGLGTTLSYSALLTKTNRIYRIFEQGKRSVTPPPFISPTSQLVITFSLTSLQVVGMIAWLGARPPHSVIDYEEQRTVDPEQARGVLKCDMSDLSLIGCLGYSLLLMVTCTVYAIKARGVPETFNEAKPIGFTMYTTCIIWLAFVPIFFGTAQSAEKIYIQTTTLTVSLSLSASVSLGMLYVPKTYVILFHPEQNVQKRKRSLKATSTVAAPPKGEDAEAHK
mGlu7, sequence (Q14831 35-915): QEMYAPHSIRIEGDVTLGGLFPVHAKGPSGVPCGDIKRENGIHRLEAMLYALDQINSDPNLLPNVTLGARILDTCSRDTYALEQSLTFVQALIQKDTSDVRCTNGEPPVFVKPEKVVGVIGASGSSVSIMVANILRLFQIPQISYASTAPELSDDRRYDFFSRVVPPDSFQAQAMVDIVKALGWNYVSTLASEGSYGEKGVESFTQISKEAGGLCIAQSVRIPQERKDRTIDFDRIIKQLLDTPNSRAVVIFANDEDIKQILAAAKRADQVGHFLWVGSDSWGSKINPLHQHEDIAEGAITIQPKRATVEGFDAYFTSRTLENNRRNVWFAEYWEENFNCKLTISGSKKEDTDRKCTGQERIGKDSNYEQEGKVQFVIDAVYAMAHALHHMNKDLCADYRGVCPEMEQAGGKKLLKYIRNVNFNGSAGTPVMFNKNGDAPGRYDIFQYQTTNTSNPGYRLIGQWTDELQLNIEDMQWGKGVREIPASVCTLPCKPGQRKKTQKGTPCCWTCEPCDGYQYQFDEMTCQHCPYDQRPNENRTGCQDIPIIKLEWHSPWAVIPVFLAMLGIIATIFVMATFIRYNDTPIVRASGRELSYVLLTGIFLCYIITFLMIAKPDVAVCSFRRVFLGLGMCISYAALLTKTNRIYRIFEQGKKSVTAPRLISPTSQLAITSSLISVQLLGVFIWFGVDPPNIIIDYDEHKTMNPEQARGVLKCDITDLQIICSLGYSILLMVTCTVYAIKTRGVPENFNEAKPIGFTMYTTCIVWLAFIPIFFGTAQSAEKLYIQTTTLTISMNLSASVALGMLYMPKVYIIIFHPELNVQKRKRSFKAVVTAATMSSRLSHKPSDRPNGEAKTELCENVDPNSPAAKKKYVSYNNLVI

Broadly, the EC50 is the concentration at which the effect is half-maximal. As for `N[C@@H](CCP(=O)(O)C(O)c1cccc([N+](=O)[O-])c1)C(=O)O` (mixture of isomers) [LSP1-2093, (3S)-3-[(((3-ammonium-3-carboxy)propyl)(hydroxy)phosphinyl)-hydroxymethyl]3-nitrobenzene], the results for the EC50 on mGlu8 (setting [1]), on mGlu6 (values marked IP) and on mGlu7 (values marked IP) were 1.5 ± 0.5 µM, 8.8 ± 0.7 µM and above 1000 µM, respectively.
For the compound `COc1cc(C(O)P(=O)(O)CC[C@H](N)C(=O)O)cc([N+](=O)[O-])c1O` (mixture of isomers) [LSP1-2111, (3S)-3-[(((3-ammonium-3-carboxy)propyl)(hydroxy)phosphinyl)-hydroxymethyl]4-hydroxy-5-methoxy-3-nitrobenzene], the EC50 was 1.5 µM on mGlu4 (value printed without readout mark, read-out: mGlu4 EC50 μM (n) (converted)); 2.2 ± 0.3 µM on mGlu4 (setting [1]); 113 µM on mGlu8 (value printed without readout mark, read-out: mGlu8 EC50 μM (n) (converted)); 66 ± 12 µM at mGlu8 (setting [1]); 1.7 ± 0.1 µM on mGlu6 (values marked IP); 3.18 µM at mGlu6 (setting [2]). Besides, the EC50 is 53 ± 20 µM on mGlu7 (values marked IP) and 101 µM at mGlu7 (setting [2]).
For the compound `CCOc1cc(C(O)P(=O)(O)CC[C@H](N)C(=O)O)cc([N+](=O)[O-])c1O` (mixture of isomers) [LSP3-1145, (3S)-3-[(((3-ammonium-3-carboxy)propyl)(hydroxy)phosphinyl)-hydroxymethyl]4-hydroxy-5-ethoxy-3-nitrobenzene], on mGlu4, the “mGlu8/4 EC50 ratio” value was found to be 3.1. The EC50 is 8.5 ± 1.1 µM at mGlu4 (setting [3]) and 27 ± 20 µM on mGlu8 (setting [3]).
`COc1ccc(C(O)P(=O)(O)CC[C@H](N)C(=O)O)cc1[N+](=O)[O-]` (single isomer, unassigned) [LSP2-6146-I, hydrochloride]: the “mGlu8/4 EC50 ratio” value on mGlu4 (hydrochloride) was 1.2. The concentration for a half-maximal effect (EC50) on mGlu4 (setting [3]) is 2 ± 0.4 µM; at mGlu8 (setting [3]) it was 2.5 ± 0.8 µM.
On to `COc1ccc(C(O)P(=O)(O)CC[C@H](N)C(=O)O)cc1[N+](=O)[O-]` (single isomer, unassigned) [LSP2-6146-II, hydrochloride], for which the “mGlu8/4 EC50 ratio” value on mGlu4 is listed as 1.3. The EC50 was 1.7 ± 0.6 µM at mGlu4 (setting [3]) and 2.2 ± 0.6 µM at mGlu8 (setting [3]).
On to `NC(CCP(=O)(O)C(O)c1cccc([N+](=O)[O-])c1)C(=O)O` (single isomer, unassigned) [LSP3-1098-I, hydrochloride], for which the half-maximal effective concentration (EC50) amounted to 1 ± 0.4 µM at mGlu4 (setting [3]) and 1.25 ± 0.3 µM at mGlu8 (setting [3]).
As for `NC(CCP(=O)(O)C(O)c1cccc([N+](=O)[O-])c1)C(=O)O` (single isomer, unassigned) [LSP3-1098-II, hydrochloride], the figures for the EC50 on mGlu4 (setting [3]) and on mGlu8 (setting [3]) were 0.9 ± 0.4 µM and 1.3 ± 0.5 µM, respectively.
In the case of `COc1cc(C(O)P(=O)(O)CC[C@H](N)C(=O)O)cc([N+](=O)[O-])c1O` (single isomer, unassigned) [LSP3-1101-I, hydrochloride], the “mGlu8/4 EC50 ratio” value on mGlu4 (hydrochloride) is on record as 31. Further, the EC50 on mGlu4 (setting [3]) is 0.74 ± 0.09 µM; on mGlu8 (setting [3]) it was 23 ± 6 µM; at mGlu6 (setting [2]), 1.11 ± 0.41 µM; on mGlu7 (setting [2]), 63 ± 35 µM.
On to `COc1cc(C(O)P(=O)(O)CC[C@H](N)C(=O)O)cc([N+](=O)[O-])c1O` (single isomer, unassigned) [LSP3-1101-II, hydrochloride], for which the “mGlu8/4 EC50 ratio” value at mGlu4 was 5.9. Besides, the EC50 at mGlu4 (setting [3]) is 4.7 ± 0.4 µM; at mGlu8 (setting [3]), 27 ± 14 µM; at mGlu6 (setting [2]), 2.36 ± 0.77 µM; on mGlu7 (setting [2]) it was 100 ± 49 µM.
As for `CCOc1cc(C(O)P(=O)(O)CC[C@H](N)C(=O)O)cc([N+](=O)[O-])c1O` (single isomer, unassigned) [LSP3-1143-I, hydrochloride], the “mGlu8/4 EC50 ratio” value at mGlu4 (hydrochloride) was determined as 6.5. Moreover, the EC50 at mGlu4 (setting [3]) was 5.1 ± 1.2 µM; on mGlu8 (setting [3]) it was 33 ± 31 µM.
Turning to `CCOc1cc(C(O)P(=O)(O)CC[C@H](N)C(=O)O)cc([N+](=O)[O-])c1O` (single isomer, unassigned) [LSP3-1143-II, hydrochloride], the “mGlu8/4 EC50 ratio” value on mGlu4 is 1.4. Besides, the EC50 came out at 6.4 ± 2.4 µM on mGlu4 (setting [3]) and 9.2 ± 2.6 µM on mGlu8 (setting [3]).
For `N[C@@H](CCP(=O)(O)C(O)c1ccc(O)c([N+](=O)[O-])c1)C(=O)O` (single isomer, unassigned) [LSP3-2074-I, hydrochloride], the “mGlu8/4 EC50 ratio” value on mGlu4 (hydrochloride) is given as 63. The EC50 on mGlu4 (setting [3]) is 0.5 ± 0.07 µM; on mGlu8 (setting [3]), 31.5 ± 8.6 µM; at mGlu6 (setting [2]), 3.9 ± 1.7 µM; at mGlu7 (setting [2]) it was 62 ± 26 µM.
For `Cl.N[C@@H](CCP(=O)(O)C(O)c1ccc(O)c([N+](=O)[O-])c1)C(=O)O` (single isomer, unassigned) [LSP3-2074-II, hydrochloride], the EC50 at mGlu4 (setting [3]) is 4.5 ± 0.2 µM; on mGlu8 (setting [3]), 39.8 ± 6.5 µM; at mGlu6 (setting [2]), 68.4 ± 14.5 µM; on mGlu7 (setting [2]) it was 295 ± 178 µM.
In the case of `Cl.N[C@@H](CCP(=O)(O)C(O)c1ccc(O)c([N+](=O)[O-])c1)C(=O)O` (single isomer, unassigned) [LSP3-2074-II], the “mGlu8/4 EC50 ratio” value at mGlu4 was 8.5.
Consider `N[C@@H](CCP(=O)(O)C(O)c1cccc(OCC(=O)O)c1)C(=O)O` (single isomer, unassigned) [LSP3-3108-II], for which the “mGlu8/4 EC50 ratio” value at mGlu4 came to 2.3. For the same compound, the EC50 on mGlu4 (setting [3]) was found to be 13 ± 2.9 µM; on mGlu8 (setting [3]), 29.3 ± 7.2 µM.
`N[C@@H](CCP(=O)(O)C(O)c1cccc(OCC(=O)O)c1)C(=O)O` (single isomer, unassigned) [LSP3-3108-I]: on mGlu4, the “mGlu8/4 EC50 ratio” value is 7.4. The EC50 at mGlu4 (setting [3]) came to 4.9 ± 1 µM; on mGlu8 (setting [3]) it was 36 ± 18 µM.
On to `COc1ccc(C(O)P(=O)(O)CC[C@H](N)C(=O)O)cc1[N+](=O)[O-]` (stereo partly drawn) [LSP1-2101, (3S)-3-[(((3-amino-3-carboxy)propyl) (hydroxy)phosphinyl)-hydroxymethyl]-4-methoxy-3-nitrobenzene], for which the EC50 on mGlu4 (setting [1]) is 0.5 ± 0.09 µM; at mGlu4 (setting [3]), 4.2 µM; on mGlu8 (setting [1]), 0.85 ± 0.07 µM; at mGlu8 (setting [3]) it was 4.4 µM.
For `N[C@@H](CCP(=O)(O)C(O)c1ccc(O)c([N+](=O)[O-])c1)C(=O)O` (stereo partly drawn) [LSP1-2109, (3S)-3-[(((3-amino-3-carboxy)propyl) (hydroxy)phosphinyl)-hydroxymethyl]-4-hydroxy-3-nitrobenzene], the EC50 was 6 ± 0.9 µM at mGlu6 (values marked IP), 6.3 µM at mGlu6 (setting [2]), 69 ± 8 µM at mGlu7 (values marked IP) and 125 µM on mGlu7 (setting [2]).
As to `NC(c1cccc([N+](=O)[O-])c1)P(=O)(O)CC[C@H](N)C(=O)O` (stereo partly drawn) [LSP1-3131, (2S)-amino-4-[[amino(3-nitrophenyl)methyl](hydroxy)phosphinyl]butanoic acid], the “mGlu8/4 EC50 ratio” value on mGlu4 was found to be 4.1. Also, the EC50 came to 0.54 ± 0.14 µM on mGlu4 (setting [1]) and 2.2 ± 0.9 µM at mGlu8 (setting [1]).
Take `N[C@@H](CCP(=O)(O)Cc1cccc([N+](=O)[O-])c1)C(=O)O` [LSP3-1045, (3S)-3-[(((3-ammonium-3-carboxy)propyl) (hydroxy)phosphinyl)-methyl]3-nitrobenzene]: the EC50 was 0.8 ± 0.2 µM at mGlu4 (setting [1]), 0.42 µM at mGlu4 (setting [3]), 4.4 ± 2 µM at mGlu8 (setting [1]) and 1 µM at mGlu8 (setting [3]).
For the compound `COc1cc(CP(=O)(O)CC[C@H](N)C(=O)O)cc([N+](=O)[O-])c1O.N` [LSP3-2134, (3S)-3-[(((3-ammonium-3-carboxy)propyl)(hydroxy)phosphinyl)-methyl]4-hydroxy-5-methoxy-3-nitrobenzene], on mGlu4, the “mGlu8/4 EC50 ratio” value is on record as 0.85. For the same compound, the EC50 at mGlu4 (setting [3]) stood at 19.7 ± 10.5 µM; at mGlu8 (setting [3]) it was 16.6 ± 1.1 µM.
On to `N[C@@H](CCP(=O)(O)C(O)c1cccc(OCC(=O)O)c1)C(=O)O` (stereo partly shown) [LSP3-3099], for which the “mGlu8/4 EC50 ratio” value on mGlu4 was 9.4. Also, the EC50 at mGlu4 (setting [3]) was found to be 7.6 ± 2 µM; at mGlu8 (setting [3]) it was 71 ± 25 µM.
Take `COc1cc(C(N)P(=O)(O)CC[C@H](N)C(=O)O)cc([N+](=O)[O-])c1O` (stereo partly drawn) [LSP4-1184, (2S)-amino-4-[[amino(4-hydroxy-5-methoxy-3-nitrophenyl)methyl](hydroxy)phosphoryl]butanoic acid]: the EC50 amounted to 13 ± 3.9 µM on mGlu4 (setting [3]) and 33 ± 12 µM on mGlu8 (setting [3]).
